Measurements published in article PMC6704710, “Preclinical evaluation of 3D185, a novel potent inhibitor of FGFR1/2/3 and CSF-1R, in FGFR-dependent and macrophage-dominant cancer models” (Journal of Experimental & Clinical Cancer Research : CR, 2019).
pIC50: −log10 of the molar value.

How the values were obtained:
Assay in all cases: Eurofins kinase panel
Assay type in all cases: biochemical
[1] = molecular target: T1, EGFR(h) (Homo sapiens, UniProt P00533); settings: read-out: Inhibition rate (%)
T1 construct: purchased Eurofins (KinaseProfiler)

[2] = molecular target: T2, Rsk1(h) (Homo sapiens, UniProt Q15418); settings: read-out: Inhibition rate (%)
T2 construct: purchased Eurofins (KinaseProfiler)
T2 sequence (Q15418 whole entry): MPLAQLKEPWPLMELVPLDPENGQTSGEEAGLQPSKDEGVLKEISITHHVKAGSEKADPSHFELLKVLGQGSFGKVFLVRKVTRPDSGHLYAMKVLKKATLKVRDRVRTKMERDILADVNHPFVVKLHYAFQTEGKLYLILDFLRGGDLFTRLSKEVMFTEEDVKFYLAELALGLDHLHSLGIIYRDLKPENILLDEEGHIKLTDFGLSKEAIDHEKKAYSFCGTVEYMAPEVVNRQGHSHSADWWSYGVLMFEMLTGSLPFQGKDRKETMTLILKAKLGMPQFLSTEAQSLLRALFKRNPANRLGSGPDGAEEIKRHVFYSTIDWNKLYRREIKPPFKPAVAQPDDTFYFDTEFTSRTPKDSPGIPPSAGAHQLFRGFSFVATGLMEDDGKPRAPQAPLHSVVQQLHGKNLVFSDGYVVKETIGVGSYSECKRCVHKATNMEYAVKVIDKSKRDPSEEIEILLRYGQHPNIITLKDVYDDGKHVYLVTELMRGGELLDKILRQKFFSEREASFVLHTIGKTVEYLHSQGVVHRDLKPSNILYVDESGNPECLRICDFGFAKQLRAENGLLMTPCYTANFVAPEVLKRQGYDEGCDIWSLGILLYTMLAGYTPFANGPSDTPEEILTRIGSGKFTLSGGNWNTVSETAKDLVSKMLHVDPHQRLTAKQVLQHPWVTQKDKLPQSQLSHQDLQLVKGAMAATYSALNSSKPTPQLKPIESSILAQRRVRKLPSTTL

[3] = molecular target: T3, Wee1B(h) (Homo sapiens, UniProt P0C1S8); settings: read-out: Inhibition rate (%)
T3 construct: purchased Eurofins (KinaseProfiler)
T3 sequence (P0C1S8 whole entry): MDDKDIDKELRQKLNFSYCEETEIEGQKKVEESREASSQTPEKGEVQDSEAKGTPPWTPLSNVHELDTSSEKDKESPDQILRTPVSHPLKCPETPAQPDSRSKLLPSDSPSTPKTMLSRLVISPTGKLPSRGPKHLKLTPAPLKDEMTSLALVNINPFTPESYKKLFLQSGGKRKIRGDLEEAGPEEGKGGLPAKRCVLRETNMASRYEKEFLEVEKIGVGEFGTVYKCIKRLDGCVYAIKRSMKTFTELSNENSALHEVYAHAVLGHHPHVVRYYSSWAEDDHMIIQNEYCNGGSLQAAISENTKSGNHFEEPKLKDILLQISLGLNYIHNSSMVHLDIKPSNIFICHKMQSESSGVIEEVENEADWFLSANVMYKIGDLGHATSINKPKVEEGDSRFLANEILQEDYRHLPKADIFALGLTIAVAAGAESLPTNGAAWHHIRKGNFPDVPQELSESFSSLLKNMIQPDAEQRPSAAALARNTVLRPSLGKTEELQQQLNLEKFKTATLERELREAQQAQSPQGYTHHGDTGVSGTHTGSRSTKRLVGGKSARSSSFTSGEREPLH

[4] = molecular target: T4, LIMK1(h) (Homo sapiens, UniProt P53667); settings: read-out: Inhibition rate (%)
T4 construct: purchased Eurofins (KinaseProfiler)
T4 sequence (P53667 whole entry): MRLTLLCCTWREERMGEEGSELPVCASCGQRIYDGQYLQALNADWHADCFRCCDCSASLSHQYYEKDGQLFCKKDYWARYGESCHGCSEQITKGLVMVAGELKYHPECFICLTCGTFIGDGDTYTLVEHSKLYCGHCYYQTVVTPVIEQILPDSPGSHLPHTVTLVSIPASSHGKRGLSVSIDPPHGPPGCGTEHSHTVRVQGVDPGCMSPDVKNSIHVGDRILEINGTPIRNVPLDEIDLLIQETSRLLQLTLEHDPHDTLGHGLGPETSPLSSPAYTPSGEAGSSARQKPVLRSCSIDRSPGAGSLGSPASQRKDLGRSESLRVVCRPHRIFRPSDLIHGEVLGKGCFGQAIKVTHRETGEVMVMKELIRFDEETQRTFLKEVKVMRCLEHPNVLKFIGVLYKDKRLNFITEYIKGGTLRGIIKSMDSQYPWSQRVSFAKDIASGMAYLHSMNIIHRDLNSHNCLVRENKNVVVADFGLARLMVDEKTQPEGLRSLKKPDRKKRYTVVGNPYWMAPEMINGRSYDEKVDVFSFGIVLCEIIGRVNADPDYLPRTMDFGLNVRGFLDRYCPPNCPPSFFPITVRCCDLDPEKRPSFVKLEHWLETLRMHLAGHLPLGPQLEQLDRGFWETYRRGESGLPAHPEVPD

[5] = molecular target: T5, EphB2(h) (Homo sapiens, UniProt P29323); settings: read-out: Inhibition rate (%)
T5 construct: purchased Eurofins (KinaseProfiler)
T5 sequence (P29323 19-1055): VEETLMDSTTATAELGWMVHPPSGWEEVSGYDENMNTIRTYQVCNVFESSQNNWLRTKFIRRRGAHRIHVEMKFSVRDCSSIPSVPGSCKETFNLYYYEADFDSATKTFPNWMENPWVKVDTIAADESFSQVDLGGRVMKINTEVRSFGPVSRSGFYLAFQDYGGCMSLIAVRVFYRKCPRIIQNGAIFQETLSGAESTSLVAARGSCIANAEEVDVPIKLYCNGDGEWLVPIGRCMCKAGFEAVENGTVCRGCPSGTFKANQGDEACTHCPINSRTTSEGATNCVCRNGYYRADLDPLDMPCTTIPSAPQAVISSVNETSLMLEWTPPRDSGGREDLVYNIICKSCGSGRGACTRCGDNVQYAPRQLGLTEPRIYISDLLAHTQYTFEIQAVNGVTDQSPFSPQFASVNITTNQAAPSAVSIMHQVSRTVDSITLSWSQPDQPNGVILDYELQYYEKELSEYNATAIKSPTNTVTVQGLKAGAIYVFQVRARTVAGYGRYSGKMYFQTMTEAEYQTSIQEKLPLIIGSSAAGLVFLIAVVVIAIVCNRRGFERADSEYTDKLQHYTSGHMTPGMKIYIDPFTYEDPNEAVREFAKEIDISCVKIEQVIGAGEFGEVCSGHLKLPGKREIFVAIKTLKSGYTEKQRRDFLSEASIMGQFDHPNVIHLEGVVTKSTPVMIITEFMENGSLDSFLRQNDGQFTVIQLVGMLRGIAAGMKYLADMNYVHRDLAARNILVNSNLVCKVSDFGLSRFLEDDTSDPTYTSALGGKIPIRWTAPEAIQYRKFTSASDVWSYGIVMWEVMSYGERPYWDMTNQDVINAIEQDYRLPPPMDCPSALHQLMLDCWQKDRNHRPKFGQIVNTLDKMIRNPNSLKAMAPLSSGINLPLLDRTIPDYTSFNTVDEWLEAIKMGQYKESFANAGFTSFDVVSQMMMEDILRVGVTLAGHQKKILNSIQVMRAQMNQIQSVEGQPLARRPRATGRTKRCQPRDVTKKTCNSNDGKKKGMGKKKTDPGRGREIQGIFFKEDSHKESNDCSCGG

[6] = molecular target: FGFR1(h) (Homo sapiens, UniProt P11362)
Sequence of FGFR1(h) (P11362 22-822): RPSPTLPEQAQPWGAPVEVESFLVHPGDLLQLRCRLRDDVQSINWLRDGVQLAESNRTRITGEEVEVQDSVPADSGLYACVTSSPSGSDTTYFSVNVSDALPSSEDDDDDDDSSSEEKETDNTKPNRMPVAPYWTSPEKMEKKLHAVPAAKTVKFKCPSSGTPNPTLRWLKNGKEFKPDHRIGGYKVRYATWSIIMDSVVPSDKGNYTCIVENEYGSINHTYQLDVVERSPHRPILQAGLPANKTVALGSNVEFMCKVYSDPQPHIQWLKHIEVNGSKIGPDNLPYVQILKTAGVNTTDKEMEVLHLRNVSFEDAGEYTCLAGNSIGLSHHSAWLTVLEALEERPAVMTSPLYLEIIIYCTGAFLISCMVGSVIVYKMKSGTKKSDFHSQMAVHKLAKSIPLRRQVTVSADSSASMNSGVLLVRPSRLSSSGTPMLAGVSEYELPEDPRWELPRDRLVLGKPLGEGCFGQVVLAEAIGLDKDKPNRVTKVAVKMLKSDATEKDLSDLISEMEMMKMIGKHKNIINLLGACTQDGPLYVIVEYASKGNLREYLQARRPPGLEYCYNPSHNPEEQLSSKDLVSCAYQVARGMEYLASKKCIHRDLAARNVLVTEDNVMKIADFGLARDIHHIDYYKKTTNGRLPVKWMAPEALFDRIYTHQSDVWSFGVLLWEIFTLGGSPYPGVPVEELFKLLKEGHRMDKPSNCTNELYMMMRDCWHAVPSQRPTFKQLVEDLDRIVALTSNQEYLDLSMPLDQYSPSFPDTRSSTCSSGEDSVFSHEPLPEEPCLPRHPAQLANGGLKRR

[7] = molecular target: T6, NEK2(h) (Homo sapiens, UniProt P51955); settings: read-out: Inhibition rate (%)
T6 construct: purchased Eurofins (KinaseProfiler)
T6 sequence (P51955 1-445): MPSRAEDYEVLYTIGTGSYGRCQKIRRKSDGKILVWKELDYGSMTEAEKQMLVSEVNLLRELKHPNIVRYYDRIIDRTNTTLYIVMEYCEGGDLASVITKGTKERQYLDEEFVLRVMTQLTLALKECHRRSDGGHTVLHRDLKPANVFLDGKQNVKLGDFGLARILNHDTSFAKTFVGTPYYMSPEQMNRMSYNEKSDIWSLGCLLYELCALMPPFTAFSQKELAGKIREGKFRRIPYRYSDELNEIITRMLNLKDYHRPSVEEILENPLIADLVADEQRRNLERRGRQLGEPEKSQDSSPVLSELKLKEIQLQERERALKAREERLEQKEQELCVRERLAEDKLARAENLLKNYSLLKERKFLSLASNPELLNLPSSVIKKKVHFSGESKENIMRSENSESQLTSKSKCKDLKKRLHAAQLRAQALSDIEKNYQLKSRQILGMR

[8] = molecular target: T7, MAPK1(h) (Homo sapiens, UniProt P27361); settings: read-out: Inhibition rate (%)
T7 construct: purchased Eurofins (KinaseProfiler)
T7 sequence (P27361 whole entry): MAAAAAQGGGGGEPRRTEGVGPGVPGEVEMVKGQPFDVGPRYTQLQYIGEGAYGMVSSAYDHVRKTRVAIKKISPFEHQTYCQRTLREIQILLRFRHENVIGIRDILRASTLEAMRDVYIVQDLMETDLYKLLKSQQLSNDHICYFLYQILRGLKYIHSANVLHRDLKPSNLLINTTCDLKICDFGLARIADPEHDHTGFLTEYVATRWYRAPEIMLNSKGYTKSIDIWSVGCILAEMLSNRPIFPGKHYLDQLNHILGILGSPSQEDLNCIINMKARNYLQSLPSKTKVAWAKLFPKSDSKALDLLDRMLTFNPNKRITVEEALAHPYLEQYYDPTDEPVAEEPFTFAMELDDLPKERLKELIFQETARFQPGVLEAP

[9] = molecular target: T8, Ret(V804M)(h) (Homo sapiens, UniProt P07949, V804M); settings: read-out: Inhibition rate (%)
T8 construct: purchased Eurofins (KinaseProfiler)
T8 sequence (P07949 29-1114 V804M): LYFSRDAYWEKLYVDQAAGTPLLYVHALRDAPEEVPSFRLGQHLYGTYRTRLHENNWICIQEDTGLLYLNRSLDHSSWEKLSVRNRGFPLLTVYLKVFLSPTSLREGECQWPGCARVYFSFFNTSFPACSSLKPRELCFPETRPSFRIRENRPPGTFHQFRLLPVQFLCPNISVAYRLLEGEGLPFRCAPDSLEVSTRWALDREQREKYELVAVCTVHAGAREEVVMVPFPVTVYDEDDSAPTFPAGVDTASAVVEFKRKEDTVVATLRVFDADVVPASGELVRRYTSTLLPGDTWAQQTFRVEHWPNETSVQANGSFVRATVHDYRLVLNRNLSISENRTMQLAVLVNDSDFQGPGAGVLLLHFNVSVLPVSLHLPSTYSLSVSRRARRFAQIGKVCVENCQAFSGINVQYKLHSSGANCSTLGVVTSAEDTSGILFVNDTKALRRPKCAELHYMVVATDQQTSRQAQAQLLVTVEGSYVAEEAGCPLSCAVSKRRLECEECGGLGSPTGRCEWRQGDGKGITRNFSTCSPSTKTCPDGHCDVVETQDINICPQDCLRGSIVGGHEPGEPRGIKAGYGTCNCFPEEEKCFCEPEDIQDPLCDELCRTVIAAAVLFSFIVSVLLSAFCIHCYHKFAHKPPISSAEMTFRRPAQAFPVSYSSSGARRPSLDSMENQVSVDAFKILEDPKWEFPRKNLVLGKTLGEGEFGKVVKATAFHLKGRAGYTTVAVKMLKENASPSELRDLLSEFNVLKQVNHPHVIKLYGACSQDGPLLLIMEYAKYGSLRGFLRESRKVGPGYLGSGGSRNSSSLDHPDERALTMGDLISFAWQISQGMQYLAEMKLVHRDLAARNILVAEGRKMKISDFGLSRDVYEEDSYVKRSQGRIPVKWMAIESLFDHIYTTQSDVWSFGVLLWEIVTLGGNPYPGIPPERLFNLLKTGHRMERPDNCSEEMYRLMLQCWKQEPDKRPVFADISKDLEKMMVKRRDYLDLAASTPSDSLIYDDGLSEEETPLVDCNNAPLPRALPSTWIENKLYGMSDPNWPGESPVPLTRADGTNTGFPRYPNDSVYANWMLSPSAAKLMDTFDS

[10] = molecular target: T9, BRK(h) (Homo sapiens, UniProt Q13882); settings: read-out: Inhibition rate (%)
T9 construct: purchased Eurofins (KinaseProfiler)
T9 sequence (Q13882 whole entry): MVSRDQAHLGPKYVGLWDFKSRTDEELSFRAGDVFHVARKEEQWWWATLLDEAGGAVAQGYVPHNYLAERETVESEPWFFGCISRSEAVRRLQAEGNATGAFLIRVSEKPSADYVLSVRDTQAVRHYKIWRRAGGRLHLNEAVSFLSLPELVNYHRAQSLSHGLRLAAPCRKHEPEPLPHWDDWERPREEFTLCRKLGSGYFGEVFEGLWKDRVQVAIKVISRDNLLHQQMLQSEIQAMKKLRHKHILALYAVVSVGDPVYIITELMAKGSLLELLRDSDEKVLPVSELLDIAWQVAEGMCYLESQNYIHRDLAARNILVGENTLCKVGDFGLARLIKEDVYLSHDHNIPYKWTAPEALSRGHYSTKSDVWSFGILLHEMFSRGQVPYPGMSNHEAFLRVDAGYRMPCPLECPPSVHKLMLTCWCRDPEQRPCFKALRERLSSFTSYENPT

## COc1cc(OC)c(Cl)c(-c2ccc3c(NC(=O)c4ccc(N5CCNC(C)(C)C5)cc4)n[nH]c3n2)c1Cl [3D185]
[1]; 10 nM
  inhibition at 0.01 µM: -12%
[1]; 100 nM
  inhibition at 0.1 µM: -16%
[1]; 1000 nM
  inhibition at 1 µM: 0%
[2]; 10 nM
  inhibition at 0.01 µM: -1%
[2]; 100 nM
  inhibition at 0.1 µM: -4%
[2]; 1000 nM
  inhibition at 1 µM: 24%
[3]; 10 nM
  inhibition at 0.01 µM: 9%
[3]; 100 nM
  inhibition at 0.1 µM: -2%
[3]; 1000 nM
  inhibition at 1 µM: 9%
[4]; 10 nM
  inhibition at 0.01 µM: 2%
[4]; 100 nM
  inhibition at 0.1 µM: 8%
[4]; 1000 nM
  inhibition at 1 µM: 0%
[5]; 10 nM
  inhibition at 0.01 µM: 12%
[5]; 100 nM
  inhibition at 0.1 µM: 6%
[5]; 1000 nM
  inhibition at 1 µM: 15%
[6]; estimated from 372-kinase panel
  pIC50: > 8.00
[6]; read-out: Inhibition rate (%)
  inhibition at 0.01 µM: 99%
  inhibition at 0.1 µM: 98%
  inhibition at 1 µM: 100%
[7]; 10 nM
  inhibition at 0.01 µM: 15%
[7]; 100 nM
  inhibition at 0.1 µM: 67%
[7]; 1000 nM
  inhibition at 1 µM: 94%
[8]; 10 nM
  inhibition at 0.01 µM: -5%
[8]; 100 nM
  inhibition at 0.1 µM: -6%
[8]; 1000 nM
  inhibition at 1 µM: 0%
[9]; 10 nM
  inhibition at 0.01 µM: -3%
[9]; 100 nM
  inhibition at 0.1 µM: -2%
[9]; 1000 nM
  inhibition at 1 µM: 56%
[10]; 10 nM
  inhibition at 0.01 µM: -5%
[10]; 100 nM
  inhibition at 0.1 µM: 7%
[10]; 1000 nM
  inhibition at 1 µM: 46%
